Measurements published in patent publication US4206117A, “Pyridinyl aminoalkyl ethers” (BASF Aktiengesellschaft, priority 1977, dated 1980).

Key:
[1] = Therapeutic range, quotient of LD 50 (mice) and ED 50 (rats); type: in vivo; conditions: in vivo; LD 50 mice i.p. / ED 50 rats oral
Experimental: (§1) To determine the anti-arrhythmic activity, the drugs were administered orally to rats (Sprague Dawley, weight from 180 to 240 g) 45 minutes before the start of the narcosis.
(§2) The animals were narcotized with thiobutabartial (100 mg/kg administered intraperitoneally). The arrhythmogenic substance used was aconitine, which was administered by intravenous infusion (at a rate of 0.005 mg/kg.min) 60 minutes after administration of the test substance. In the case of untreated animals (N=30), arrhythmias occurred after an average of 3.7±0.9 minutes, the commencement of which can be delayed by anti-arrhythmic agents, the delay depending on the dosage.
(§3) For a quantitative evaluation of the linear relation between log dose (mg/kg) of the test substances and relative prolongation of the duration of aconitine infusion (Δ%), the dose which extended the duration of infusion by 50% (ED 50) was determined. The prior art anti-arrhythmic agent quinidine served as a comparative substance.
(§4) The acute toxicity was determined on groups of 10 or 20 female Swiss mice, weighing 20-26 g, the compounds being administered intraperitoneally.

[2] = system: Aconitineinduced arrhythmia, rats; test: animal or person; type: in vivo, rats (Sprague Dawley); conditions: for ED50 / Emax: Rattus norvegicus, po; for ED50: 1 h, read-out: Effective dose ED 50 (extends the duration of aconitine infusion by 50%); for Emax: read-out: R.M.A. (relative maximum activity); for Maximum action: Prolongation of the duration of aconitine infusion, Δ% / R.M.A. (relative maximum activity): at the highest nontoxic dose; for Maximum action: Prolongation of the duration of aconitine infusion, Δ% / Maximum action: Dose (highest nontoxic dose): oral, rats; for R.A. (relative activity) / R.M.A. (relative maximum activity): quinidine = 1.00
Experimental: as §1
The animals were narcotized with thiobutabartial (100 mg/kg administered intraperitoneally). The arrhythmogenic substance used was aconitine, which was administered by intravenous infusion (at a rate of 0.005 mg/kg.min) 60 minutes after administration of the test substance.
For a quantitative evaluation of the linear relation between log dose (mg/kg) of the test substances and relative prolongation of the duration of aconitine infusion (Δ%), the dose which extended the duration of infusion by 50% (ED 50) was determined.

[3] = Acute toxicity, intraperitoneal administration; conditions: mouse, in vivo, ip, female Swiss mice, within 24 hours, read-out: Acute toxicity LD 50
Experimental: as §4

[4] = system: Aconitineinduced arrhythmia, rats; test: Therapeutic range, quotient of LD 50 (mice) and ED 50 (rats); type: in vivo; conditions: relative to quinidine
Experimental: as §1, §2, §3, §4

Compound	selectivity ratio [1]	ED50 [2] [mg/kg]	Emax [2] [%]	Maximum action: Prolongation of the duration of aconitine infusion, Δ% [2] [%]	Maximum action: Dose (highest nontoxic dose) [2] [mg/kg]	R.A. (relative activity) [2]	LD50 at 24 h [3] [mg/kg]	R.M.A. (relative maximum activity) [2]	effect achieved with the maximum dose, times as great as that of quinidine ([2]; relative to quinidine) [times]	therapeutic range, times as great as that of quinidine [4] [times]	anti-arrhythmic action, times more powerful than that of quinidine ([2]; relative to quinidine) [times]	therapeutic range compared with that of quinidine (in words) [4]
Cc1nc(Cc2ccccc2)c2c(c1OCCN(C)C)COC2.Cl.Cl [Example 1, 4-benzyl-6-methyl-1,3-dihydro-furo[3,4-c]pyridin-7-yl β-dimethylaminoethyl ether bis-hydrochloride]	~4.74	31	138	184	68.1	1.36	~147					
COC(=O)c1c(Cc2ccccc2)nc(C)c(OCCCN(C)C)c1C(=O)OC [Example 18]	17.3	9.82	222	295	215	4.35	170					
CCOC(=O)c1c(Cc2ccccc2)nc(C)c(OCCCN(C)C)c1C(=O)OCC [Example 25]	8.62	15.9	147	195	100	2.67	137					
CCc1nc(Cc2ccccc2)c2c(c1OCCCN(C)C)COC2 [Example 29]	5.75	18.1	204	271	215	2.34	104					
CN(C)CCCOc1c(Cc2ccccc2)nc(Cc2ccccc2)c2c1COC2 [Example 32]				319	215	2.84		2.40				
Cc1nc(Cc2ccccc2)c2c(c1OCCCNC(C)C)COC2 [Example 34, 4-benzyl-6-methyl-1,3-dihydro-furo[3,4-c]pyridin-7-yl 3-isopropylaminopropyl ether]				457	215	1.46		3.44	3.4			
CCCN(CCC)CCCOc1c(C)nc(Cc2ccccc2)c2c1COC2 [Example 36]	8.57	21	165	219	100	2.01	180					
Cc1nc(Cc2ccccc2)c2c(c1OCCCN1CCNCC1)COC2 [Example 43]	~5.16	28.5	116	154	46.4	1.48	~147		1.2			
Cc1nc(Cc2ccccc2)c2c(c1OCCCCNC(C)C)COC2 [Example 47]				358	100	7.47		2.69		4.1	7.5	
Cc1nc(Cc2ccccc2)c2c(c1OCCCCCNC(C)C)COC2 [Example 52]	6.5	16	169	225	215	2.64	104					
Cc1nc(Cc2ccccc2)c2c(c1OCCC(C)CCNC(C)C)COC2 (stereo not drawn) [Example 55]				333	100	3.47		2.50				
CCN(CC)CCC(C)CCOc1c(C)nc(Cc2ccccc2)c2c1COC2 (stereo not drawn) [Example 57]				261	100	3.74		1.96				
CCNCCCCOc1c(C)nc(Cc2ccccc2)c2c1COC2 [Example 58]	6.06	18.8	140	186	100	2.27	114					
CCC(C)NCCCCOc1c(C)nc(Cc2ccccc2)c2c1COC2 (stereo not drawn) [Example 60]	4.79	21.1	185	246	100	2.00	101					
Cc1nc(Cc2ccccc2)c2c(c1OCCCCNC(C)(C)C)COC2 [Example 61]				298	46.4	4.60		2.24				
Cc1nc(Cc2ccccc2)c2c(c1OCCCCN(C(C)C)C(C)C)COC2 [Example 64]	7.36	21.2	238	317	100	2.01	156					
Cc1nc(Cc2ccccc2)c2c(c1OCCCCNCCC(C)(C)O)COC2 [Example 68]	~4.31	15.8	181	241	100	2.70	~68.1					as great as
Cc1nc(Cc2ccccc2)c2c(c1OCC(O)CNC(C)C)COC2.Cl (stereo not drawn) [Example 69, 4-benzyl-6-methyl-1,3-dihydrofuro[3,4-c]pyridin-7-yl 2-hydroxy-3-isopropylaminopropyl ether hydrochloride]	4.65	23	164	218	464	1.84	107					
C=C[C@H]1C[N@@]2CC[C@H]1C[C@@H]2[C@@H](O)c1ccnc2ccc(OC)cc12 [Quinidine, quinidine, reference compound]				133								
